Laboratory results published in patent US10597388B2, “Pyridazinone herbicides” (FMC CORPORATION, priority 2014, dated 2020).

Columns and labels:
Assay type in all cases: in vivo
[1] = test system: ducksalad (Heteranthera limosa); assay: Test B flooded paddy test; settings: 250 g ai/ha, Flood; visual rating on scale of 0 to 100 where 0 is no effect and 100 is complete control; 13 to 15 d after treatment
Procedure: (§1) Plant species in the flooded paddy test selected from rice (Oryza sativa), sedge, umbrella (small-flower umbrella sedge, Cyperus difformis), ducksalad (Heteranthera limosa), and barnyardgrass (Echinochloa crus-galli) were grown to the 2-leaf stage for testing. At time of treatment, test pots were flooded to 3 cm above the soil surface, treated by application of test compounds directly to the paddy water, and then maintained at that water depth for the duration of the test. Treated plants and controls were maintained in a greenhouse for 13 to 15 d, after which time all species were compared to controls and visually evaluated. Plant response ratings, summarized in Table B, are based on a scale of 0 to 100 where 0 is no effect and 100 is complete control. A dash (-) response means no test result.

[2] = test system: sedge, umbrella (small-flower umbrella sedge, Cyperus difformis); assay: Test B flooded paddy test; settings: 250 g ai/ha, Flood; visual rating on scale of 0 to 100 where 0 is no effect and 100 is complete control; 13 to 15 d after treatment
Procedure: as §1

[3] = test system: rice (Oryza sativa); assay: Test B flooded paddy test; settings: 250 g ai/ha, Flood; visual rating on scale of 0 to 100 where 0 is no effect and 100 is complete control; 13 to 15 d after treatment
Procedure: as §1

[4] = test system: barnyardgrass (Echinochloa crus-galli); assay: Test B flooded paddy test; settings: 250 g ai/ha, Flood; visual rating on scale of 0 to 100 where 0 is no effect and 100 is complete control; 13 to 15 d after treatment
Procedure: as §1

[5] = test system: kochia (Kochia scoparia); assay: Test A greenhouse herbicide test, pre- and postemergence
Source text: (§2) Seeds of plant species selected from barnyardgrass (Echinochloa crus-galli), kochia (Kochia scoparia), ragweed (common ragweed, Ambrosia elatior), ryegrass, Italian (Italian ryegrass, Lolium multiflorum), crabgrass, large (large crabgrass, Digitaria sanguinalis), foxtail, giant (giant foxtail, Setaria faberii), momingglory (Ipomoea spp.), pigweed (Amaranthus retroflexus), velvetleaf (Abutilon theophrasti), wheat (Triticum aestivum), and corn (Zea mays) were planted into a blend of loam soil and sand and treated preemergence with a directed soil spray using test chemicals formulated in a non-phytotoxic solvent mixture which included a surfactant.
(§3) At the same time, plants selected from these crop and weed species and also blackgrass (Alopecurus myosuroides), and galium (catchweed bedstraw, Galium aparine) were planted in pots containing the same blend of loam soil and sand and treated with postemergence applications of test chemicals formulated in the same manner. Plants ranged in height from 2 to 10 cm and were in the one- to two-leaf stage for the postemergence treatment. Treated plants and untreated controls were maintained in a greenhouse for approximately 10 d, after which time all treated plants were compared to untreated controls and visually evaluated for injury. Plant response ratings, summarized in Table A, are based on a 0 to 100 scale where 0 is no effect and 100 is complete control. A dash (-) response means no test result.

[6] = test system: foxtail, giant (giant foxtail, Setaria faberii); assay: as above
Source text: as §2, §3

[7] = test system: ragweed (common ragweed, Ambrosia elatior); assay: as above
Source text: as §2, §3

[8] = test system: wheat (Triticum aestivum); assay: as above; settings: Postemergence; for Wheat plant response rating: 0 is no effect, 100 is complete control
Source text: as §2, §3

[9] = test system: corn (Zea mays); assay: as above; settings: Postemergence; for Corn plant response rating: 0 is no effect, 100 is complete control
Source text: as §2, §3

[10] = test system: pigweed (Amaranthus retroflexus); assay: as above
Source text: as §2, §3

[11] = test system: barnyardgrass (Echinochloa crus-galli); assay: as above
Source text: as §2, §3

[12] = test system: ryegrass, Italian (Italian ryegrass, Lolium multiflorum); assay: as above
Source text: as §2, §3

[13] = test system: galium (catchweed bedstraw, Galium aparine); assay: Test A greenhouse herbicide test, postemergence; settings: for Galium plant response rating: 0 is no effect, 100 is complete control
Procedure, shortened: (§4)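 Seedlings in a loam soil and sand mix received formulated compound postemergence at the one- to two-leaf stage. Greenhouse holding lasts approximately 10 d, then injury is scored visually relative to untreated plants, 0 meaning no effect and 100 complete control.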

[14] = test system: blackgrass (Alopecurus myosuroides); assay: Test A greenhouse herbicide test, postemergence; settings: for Blackgrass plant response rating: 0 is no effect, 100 is complete control
Procedure, shortened: as §4

[15] = Postemergence, 125 g ai/ha, 0 to 100 scale, 0 no effect, 100 complete control
[16] = Postemergence, 500 g ai/ha, visual rating after approx. 10 d, 0 to 100 scale (0 no effect, 100 complete control)
[17] = Preemergence, 125 g ai/ha, visual injury rating, 0 to 100 scale (0 no effect, 100 complete control), approx. 10 d
[18] = Preemergence, 500 g ai/ha, 0 to 100 scale where 0 is no effect and 100 is complete control
[19] = 125 g ai/ha, 0 to 100 scale, 0 no effect, 100 complete control
[20] = 500 g ai/ha, visual rating after approx. 10 d, 0 to 100 scale (0 no effect, 100 complete control)
[21] = Postemergence, 125 g ai/ha, 0 to 100 scale where 0 is no effect and 100 is complete control
[22] = Postemergence, 500 g ai/ha, 0 to 100 scale, 0 is no effect, 100 is complete control
[23] = Preemergence, 125 g ai/ha, 0 to 100 scale where 0 is no effect and 100 is complete control
[24] = Preemergence, 500 g ai/ha, 0 to 100 scale, 0 no effect, 100 complete control
[25] = 125 g ai/ha, 0 to 100 scale where 0 is no effect and 100 is complete control
[26] = Postemergence, 1000 g ai/ha, 0 to 100 scale, 0 is no effect, 100 is complete control
[27] = Preemergence, 1000 g ai/ha, 0 to 100 scale, 0 no effect, 100 complete control

Cc1nn(C)c(=O)c(-c2ccc(Cl)c3ccccc23)c1OS(=O)(=O)C(F)(F)F [Compound 158]
65: Plant response rating, Sedge, Umbrella [2]
20: Plant response rating, Rice [3]
40: Plant response rating, Kochia [5, 18] | Plant response rating, Foxtail, Giant [6, 18]
0: Plant response rating, Ducksalad [1] | Plant response rating, Barnyardgrass [4] | Plant response rating, Wheat [8, 19] | Plant response rating, Wheat [8, 20] | Plant response rating, Corn [9, 19] | Plant response rating, Corn [9, 20]
100: Plant response rating, Kochia [5, 16] | Plant response rating, Ragweed [7, 16] | Plant response rating, Pigweed [10, 16] | Plant response rating, Pigweed [10, 18] | Plant response rating, Ryegrass, Italian [12, 16]
80: Plant response rating, Ragweed [7, 18] | Plant response rating, Pigweed [10, 15] | Plant response rating, Ryegrass, Italian [12, 17] | Plant response rating, Ryegrass, Italian [12, 18] | Plant response rating, Galium [13, 19]
30: Plant response rating, Kochia [5, 17] | Plant response rating, Foxtail, Giant [6, 15]
50: Plant response rating, Ragweed [7, 17] | Plant response rating, Barnyardgrass [11, 16] | Plant response rating, Blackgrass [14, 19]
90: Plant response rating, Kochia [5, 15] | Plant response rating, Ragweed [7, 15] | Plant response rating, Ryegrass, Italian [12, 15] | Plant response rating, Galium [13, 20]
60: Plant response rating, Foxtail, Giant [6, 16] | Plant response rating, Barnyardgrass [11, 18] | Plant response rating, Blackgrass [14, 20]
10: Plant response rating, Foxtail, Giant [6, 17] | Plant response rating, Pigweed [10, 17] | Plant response rating, Barnyardgrass [11, 15] | Plant response rating, Barnyardgrass [11, 17]

Cc1cc(C)c2sc(C)c(-c3c(OC(=O)N4CCOCC4)c(C)nn(C)c3=O)c2c1 [Compound 174]
60: Plant response rating, Pigweed [10, 16]
30: Plant response rating, Galium [13, 19]
10: Plant response rating, Foxtail, Giant [6, 16] | Plant response rating, Foxtail, Giant [6, 18] | Plant response rating, Barnyardgrass [11, 16] | Plant response rating, Ryegrass, Italian [12, 15]
40: Plant response rating, Pigweed [10, 15] | Plant response rating, Ryegrass, Italian [12, 16]
20: Plant response rating, Ragweed [7, 15] | Plant response rating, Ragweed [7, 16] | Plant response rating, Pigweed [10, 18]
0: Plant response rating, Ducksalad [1] | Plant response rating, Sedge, Umbrella [2] | Plant response rating, Rice [3] | Plant response rating, Barnyardgrass [4] | Plant response rating, Kochia [5, 15] | Plant response rating, Kochia [5, 16] | Plant response rating, Kochia [5, 17] | Plant response rating, Kochia [5, 18] | Plant response rating, Foxtail, Giant [6, 15] | Plant response rating, Foxtail, Giant [6, 17] | Plant response rating, Ragweed [7, 17] | Plant response rating, Ragweed [7, 18] | Plant response rating, Wheat [8, 19] | Plant response rating, Wheat [8, 20] | Plant response rating, Corn [9, 19] | Plant response rating, Corn [9, 20] | Plant response rating, Pigweed [10, 17] | Plant response rating, Barnyardgrass [11, 15] | Plant response rating, Barnyardgrass [11, 17] | Plant response rating, Barnyardgrass [11, 18] | Plant response rating, Ryegrass, Italian [12, 17] | Plant response rating, Ryegrass, Italian [12, 18] | Plant response rating, Blackgrass [14, 19] | Plant response rating, Blackgrass [14, 20]
80: Plant response rating, Galium [13, 20]

Cc1sc2ccccc2c1-c1c(O)cnn(C)c1=O [Compound 48]
30: Pigweed plant response rating [10, 23] | Plant response rating, Pigweed [10, 24] | Blackgrass plant response rating ([14]; 500 g ai/ha, 0 to 100 scale)
0: Plant response rating, Ducksalad [1] | Plant response rating, Sedge, Umbrella [2] | Plant response rating, Rice [3] | Plant response rating, Barnyardgrass [4] | Kochia plant response rating [5, 23] | Foxtail, Giant plant response rating [6, 23] | Plant response rating, Ragweed [7, 21] | Plant response rating, Wheat [8, 25] | Wheat plant response rating ([8]; 500 g ai/ha, 0 to 100 scale) | Plant response rating, Corn [9, 25] | Corn plant response rating ([9]; 500 g ai/ha, 0 to 100 scale) | Barnyardgrass plant response rating [11, 23] | Plant response rating, Barnyardgrass [11, 24] | Plant response rating, Blackgrass [14, 25]
90: Plant response rating, Galium [13, 25] | Galium plant response rating ([13]; 500 g ai/ha, 0 to 100 scale)
60: Foxtail, Giant plant response rating [6, 22] | Plant response rating, Ragweed [7, 24] | Plant response rating, Pigweed [10, 21] | Ryegrass, Italian plant response rating [12, 22] | Plant response rating, Ryegrass, Italian [12, 24]
80: Kochia plant response rating [5, 22]
10: Plant response rating, Kochia [5, 24] | Plant response rating, Foxtail, Giant [6, 24] | Ragweed plant response rating [7, 23] | Plant response rating, Barnyardgrass [11, 21]
70: Plant response rating, Kochia [5, 21] | Pigweed plant response rating [10, 22]
20: Ragweed plant response rating [7, 22] | Ryegrass, Italian plant response rating [12, 23]
50: Plant response rating, Foxtail, Giant [6, 21] | Barnyardgrass plant response rating [11, 22] | Plant response rating, Ryegrass, Italian [12, 21]

Cc1nn(Cc2ccccc2)c(=O)c(-c2cccc3ccccc23)c1O [Compound 168]
30: Plant response rating, Foxtail, Giant [6, 15] | Plant response rating, Galium [13, 20] | Plant response rating, Blackgrass [14, 20]
60: Plant response rating, Ryegrass, Italian [12, 15] | Plant response rating, Ryegrass, Italian [12, 16]
20: Plant response rating, Kochia [5, 15] | Plant response rating, Kochia [5, 16] | Plant response rating, Wheat [8, 20] | Plant response rating, Corn [9, 20] | Plant response rating, Barnyardgrass [11, 18] | Plant response rating, Blackgrass [14, 19]
0: Plant response rating, Sedge, Umbrella [2] | Plant response rating, Rice [3] | Plant response rating, Barnyardgrass [4] | Plant response rating, Kochia [5, 17] | Plant response rating, Kochia [5, 18] | Plant response rating, Foxtail, Giant [6, 17] | Plant response rating, Ragweed [7, 15] | Plant response rating, Ragweed [7, 16] | Plant response rating, Ragweed [7, 17] | Plant response rating, Ragweed [7, 18] | Plant response rating, Wheat [8, 19] | Plant response rating, Corn [9, 19] | Plant response rating, Pigweed [10, 15] | Plant response rating, Pigweed [10, 17] | Plant response rating, Pigweed [10, 18] | Plant response rating, Barnyardgrass [11, 15] | Plant response rating, Barnyardgrass [11, 17] | Plant response rating, Ryegrass, Italian [12, 17] | Plant response rating, Galium [13, 19]
40: Plant response rating, Ducksalad [1] | Plant response rating, Foxtail, Giant [6, 16] | Plant response rating, Foxtail, Giant [6, 18] | Plant response rating, Pigweed [10, 16] | Plant response rating, Barnyardgrass [11, 16] | Plant response rating, Ryegrass, Italian [12, 18]

C#CCOc1c(C)nn(C)c(=O)c1-c1cccc2ccccc12 [Compound 179]
90: Galium plant response rating ([13]; 1000 g ai/ha, 0 to 100 scale)
10: Kochia plant response rating [5, 26] | Foxtail, Giant plant response rating [6, 26] | Corn plant response rating ([9]; 1000 g ai/ha, 0 to 100 scale) | Barnyardgrass plant response rating [11, 26]
40: Ragweed plant response rating [7, 26] | Blackgrass plant response rating ([14]; 1000 g ai/ha, 0 to 100 scale)
50: Plant response rating, Ragweed [7, 27]
0: Plant response rating, Ducksalad [1] | Plant response rating, Sedge, Umbrella [2] | Plant response rating, Rice [3] | Plant response rating, Barnyardgrass [4] | Wheat plant response rating ([8]; 1000 g ai/ha, 0 to 100 scale) | Pigweed plant response rating [10, 26] | Plant response rating, Barnyardgrass [11, 27]
70: Ryegrass, Italian plant response rating [12, 26]
80: Plant response rating, Pigweed [10, 27]
30: Plant response rating, Kochia [5, 27] | Plant response rating, Foxtail, Giant [6, 27] | Plant response rating, Ryegrass, Italian [12, 27]
